# According to US8865901B2, “Gain-of-function Bcl-2 inhibitors” (priority 2009, dated 2014):
# Where “and” joins values, the source holds several entries; their conditions need not be identical. Equal values may be shown once. Read-outs that look alike come from different tables or passages of the source.
# Columns and labels:
# [1] = tested on: TAMH cells overexpressing Bcl-xL (TAMH-Bcl-xL, Tabx2s); experiment: Cytotoxicity / apoptosis induction in TAMH cells overexpressing Bcl-xL; assay type: cell-based; conditions: for Neo/Bcl-xL: selectivity ratio
# Procedure: (§1) To examine the sensitivity of cells over-expressing Bcl-xL to various mitochondrial inhibitors and apoptosis inducers, cell lines over-expressing Bcl-xL were prepared and tested according to Hockenberry et al. U.S. Pat. No. 7,241,804, hereby incorporated by reference in its entirety. Competitive binding of compounds with fluorescent antimycin A3, and competitive binding of compounds with BH3 peptide and Bcl-2. Competitive binding of compounds with BH-3 peptide were also measured using Bcl-xL as previously described. Id.
# (§2) Cell lines were grown in RPMI 1640 medium (Gibco, Grand Island, N.Y.) supplemented with 5% fetal bovine serum (Hyclone, Logan, Utah). Also shown is the ratio of TAMH cells expressing Bcl-xL to those expressing A142L (WT:142L). The assay measures the potency of various compounds with respect to inducing apoptosis in these cells.
# (§3) The compounds described in Example 2 were tested for their ability to inhibit Bcl-2 gain-of-function in TAMH cells, TAMH cells overexpressing […] (TAMH-Bcl-xL), TAMH cells transfected with Neo vector (Neo), TAMH cells over expressing a variant of Bcl-xL (A142L) using the methods of Example 1. 3-6.
# (§4) The effects of the compounds described in Example 8 on TAMH cells, TAMH cells overexpressing Bcl-xL (TAMH-Bcl-xL), TAMH cells transfected with Neo vector (Neo), TAMH cells over expressing a variant of Bcl-xL (A142L) is shown in Table 8
# (§5) The effects of the compounds described in Example 10 on TAMH cells, TAMH cells overexpressing Bcl-xL (TAMH-Bcl-xL), TAMH cells transfected with Neo vector (Neo), TAMH cells over expressing a variant of Bcl-xL (A142L) is shown in the following Table 10
# [2] = tested on: TAMH cells transfected with Neo vector (Neo); experiment: Cytotoxicity / apoptosis induction in TAMH cells transfected with Neo vector; assay type: cell-based; conditions: for IC50: read-out: IC50 TAMH Neo
# Procedure: as §1, §2, §3, §4, §5
# [3] = Table 10, read-out: IC50 TAMH Bcl-XL
# [4] = Table 13, read-out: IC50 TAMH Bcl-xL
# [5] = Table 15, read-out: IC50 TAMH Bcl-XL
# [6] = Table 5, TAMH cells overexpressing Bcl-xL (Tabx2s), read-out: 2S EC50
# [7] = Table 5, TAMH Neo cells, read-out: Neo EC50
compound,measurement,setting,value
O=S(=O)(c1cc(Br)ccc1O)c1cc(Br)ccc1O [Compound 1050],Fold Select. (Neo/Bcl-XL),[1]; Table 10,2.8
same,IC50,[1]; [3],3.8 µM
same,IC50,[2]; Table 10,10.5 µM
CC(C)(C)c1cc(C(C)(C)c2ccccc2)cc(Cc2cc(C(C)(C)c3ccccc3)cc(C(C)(C)C)c2O)c1O [Compound 288938],Fold Select. (Neo/Bcl-XL),[1]; Table 10,3.3
same,IC50,[1]; [3],28 µM
same,IC50,[2]; Table 10,93.1 µM
Cc1cc(C(C)(C)C)cc(Cc2cc(C(C)(C)C)cc(Cc3cc(C(C)(C)C)cc(C)c3O)c2O)c1O [Compound 634604],Fold Select. (Neo/Bcl-xL),[1]; Table 13,6.4
same,IC50,[1]; [4],5 µM
same,IC50,[2]; Table 13,32.1 µM
Oc1ccc(Sc2ccc(O)cc2O)c(O)c1 [Compound 59828],Fold Select. (Neo/Bcl-XL),[1]; Table 11,0
CC(C)c1ccc(Sc2ccc(C(C)C)cc2O)c(O)c1 [Compound 39635],Fold Select. (Neo/Bcl-XL),[1]; Table 10,1.3
same,IC50,[1]; [3],4.3 µM
same,IC50,[2]; Table 10,7.8 µM
Cc1cc(C)c(O)c(CNCc2ccccc2)c1 [Compound 47911],EC50,"[1]; Mus musculus, TAMH, Table 8, read-out: TAMH Bcl-xL",4.1 µM
same,EC50,"[1]; Mus musculus, TAMH, Table 20, read-out: Bcl-XL",4.1 µM
same,Neo/Bcl-xL,[1]; Table 8,7.8
same,Neo/Bcl-XL,[1]; Table 20,7.8
same,EC50,"[2]; Mus musculus, TAMH, Table 8, read-out: TANH Neo",31.9 µM
same,EC50,"[2]; Mus musculus, TAMH, Table 20, read-out: Neo",31.9 µM
COc1cc(C)ccc1C(=O)c1ccc(C)cc1OC [Compound 143532],Fold Select. (Neo/Bcl-XL),[1]; Table 11,0
Cc1cc(Cc2cc(C)cc(C(C)(C)C)c2O)c(O)c(Cc2cc(C)cc(C(C)(C)C)c2O)c1 [Compound 62914],Fold Select. (Neo/Bcl-xL),[1]; Table 13,> 20 and 22.7
Cc1cc(Cc2cc(Cc3cc(C)cc(C(C)(C)C)c3O)c(C)cc2C)c(O)c(C(C)(C)C)c1 [Compound 57725],Fold Select. (Neo/Bcl-xL),[1]; Table 13,−0
Cc1cc(Sc2cc(C)cc(C(C)(C)C)c2O)c(O)c(C(C)(C)C)c1 [Compound 67488],Fold Select. (Neo/Bcl-XL),[1]; Table 10,6.8
same,IC50,[1]; [3],14.6 µM
COc1ccccc1Cc1ccccc1OC [Compound 78834],Fold Select. (Neo/Bcl-XL),[1]; Table 11,0
O=S(=O)(c1cc(Cl)ccc1O)c1cc(Cl)ccc1O [Compound 406932],Fold Select. (Neo/Bcl-XL),[1]; Table 10,4.4
same,IC50,[1]; [3],13.6 µM
same,Fold Selectivity (Neo/Bcl-XL),[1]; Table 15,4.4
same,IC50,[1]; [5],13.6 µM
same,IC50,[2]; Table 10,57.2 µM
same,IC50,[2]; Table 15,57.2 µM
Oc1c(Cl)cc(Cl)cc1Sc1cc(Cl)cc(Cl)c1O [Compound 9872],Fold Select. (Neo/Bcl-XL),[1]; Table 10,3.3
same,IC50,[1]; [3],2.3 µM
same,IC50,[2]; Table 10,7.5 µM
CN(Cc1cc(Br)cc(Br)c1O)Cc1c(O)ccc2ccccc12 [Compound 88852],Neo/Bcl-XL,[1]; Table 18,5.8
same,EC50,"[1]; Table 18, read-out: Bcl-XL",3.7 µM
same,EC50,"[2]; Table 18, read-out: Neo",21.5 µM
CCN(Cc1cc(Cl)cc(C)c1O)Cc1c(O)ccc2ccccc12 [Compound 88850],Neo/Bcl-XL,[1]; Table 18,2.7
same,EC50,"[1]; Table 18, read-out: Bcl-XL",4.5 µM
same,EC50,"[2]; Table 18, read-out: Neo",12 µM
Oc1ccc(Cl)cc1Sc1cc(Cl)ccc1O [Compound 55636],EC50,"[1]; Table 8, read-out: TAMH Bcl-xL",1.9 µM
same,Neo/Bcl-xL,[1]; Table 8,7.7
same,Fold Select. (Neo/Bcl-XL),[1]; Table 10,7.7
same,IC50,[1]; [3],1.9 µM
same,EC50,"[2]; Table 8, read-out: TANH Neo",14.7 µM
same,IC50,[2]; Table 10,14.7 µM
CC(C)c1ccc(S(=O)(=O)c2ccc([N+](=O)[O-])cc2[N+](=O)[O-])cc1 [Compound 85653],Fold Selectivity (Neo/Bcl-XL),[1]; Table 15,2.7
same,IC50,[1]; [5],4.5 µM
same,IC50,[2]; Table 15,12 µM
CC(=O)c1cc(Cl)cc(Cc2cc(Cl)cc(Cc3cc(Cl)cc(C(C)=O)c3O)c2O)c1O [Compound 48698],Fold Select. (Neo/Bcl-xL),[1]; Table 13,8.1
same,IC50,[1]; [4],0.7 µM
same,IC50,[2]; Table 13,5.7 µM
O=[N+]([O-])c1ccc(S(=O)(=O)c2ccccc2)c2nonc12 [Compound 0219],EC50,"[1]; Table 6, TAMH cells overexpressing Bcl-xL (Tabx2s), read-out: 2S EC50",7.6 µM
Cc1cc(Cc2cc(Br)ccc2O)c(O)c(Cc2cc(Br)ccc2O)c1 [Compound 0039],EC50,[1]; [6],0.7 µM
same,EC50,[2]; [7],2.9 µM
O=[N+]([O-])c1ccc(S(=O)(=O)Cc2ccccc2)c([N+](=O)[O-])c1 [Compound 122657],Fold Selectivity (Neo/Bcl-XL),[1]; Table 15,3.9
same,IC50,[1]; [5],3.5 µM
same,IC50,[2]; Table 15,13.5 µM
Oc1c(CCl)cc(Cl)cc1Cc1cc(Cl)cc(Cc2cc(Cl)cc(CCl)c2O)c1O [Compound 48444],Fold Select. (Neo/Bcl-xL),[1]; Table 13,9.3
same,IC50,[1]; [4],1.3 µM
same,IC50,[2]; Table 13,12.1 µM
Oc1c(Cl)cc(Cl)cc1Sc1cc(Cl)cc(Cl)c1O [Compound 47129],Fold Select. (Neo/Bcl-XL),[1]; Table 10,4.6
same,IC50,[1]; [3],0.5 µM
same,IC50,[2]; Table 10,2.3 µM
Cc1cc(Cc2cc(C)c(N)cc2N)c(N)cc1N [Compound 7215],Fold Select. (Neo/Bcl-XL),[1]; Table 11,0
COc1ccc(C)cc1Cc1cc(C)cc(Cc2cc(C)ccc2O)c1OC [Compound 0036],EC50,[1]; [6],1.9 µM
same,EC50,[2]; [7],17.5 µM
CC(=O)c1cc(Cc2cc(C)cc(C)c2O)c(O)c(Cc2cc(C)cc(C)c2O)c1 [Compound 48705],Fold Select. (Neo/Bcl-xL),[1]; Table 13,0
O=[N+]([O-])c1ccc(S(=O)(=O)C2CCCCC2Cl)c([N+](=O)[O-])c1 (centres unmarked) [Compound 405645],Fold Selectivity (Neo/Bcl-XL),[1]; Table 15,2.1
same,IC50,[1]; [5],2.9 µM
same,IC50,[2]; Table 15,6.1 µM
Oc1ccc2ccccc2c1Cc1c(O)ccc2ccccc12 [Compound 5992],IC50,[1]; [3],3 µM and 4.4 µM
same,IC50,[2]; Table 10,12.2 µM and 8 µM
Cc1cc(O)c(Sc2c(O)cc(C)cc2C(C)(C)C)c(C(C)(C)C)c1 [Compound 59685],Fold Select. (Neo/Bcl-XL),[1]; Table 10,5.5
same,IC50,[1]; [3],12 µM
same,IC50,[2]; Table 10,66.4 µM
OCc1cc(Cl)cc(Cc2cc(Cl)cc(Cc3cc(Cl)cc(CO)c3O)c2O)c1O [Compound 48445],Fold Select. (Neo/Bcl-xL),[1]; Table 13,2.5
same,IC50,[1]; [4],1.8 µM
same,IC50,[2]; Table 13,4.5 µM
Cc1cc(C)c(O)c(Cc2cc(Cl)cc(Cc3cc(C)cc(C)c3O)c2O)c1 [Compound 48167],Fold Select. (Neo/Bcl-xL),[1]; Table 13,4
same,IC50,[1]; [4],1.4 µM
same,IC50,[2]; Table 13,5.6 µM
Cc1cc(O)c(Sc2c(O)cc(C)c(Cl)c2C)c(C)c1Cl [Compound 52168],Fold Select. (Neo/Bcl-XL),[1]; Table 10,5.2
same,IC50,[1]; [3],1 µM
same,IC50,[2]; Table 10,5.2 µM
[O-][S+](c1cc(Cl)ccc1O)c1cc(Cl)ccc1O [Compound 24019],Fold Select. (Neo/Bcl-XL),[1]; Table 10,5.7
same,IC50,[1]; [3],5.6 µM
same,IC50,[2]; Table 10,32.2 µM
CN(C)Cc1cc(Cl)cc(Cc2cc(Cl)cc(CN(C)C)c2O)c1O.Cl [Compound 39242],Fold Select. (Neo/Bcl-XL),[1]; Table 11,0
O=[N+]([O-])c1ccc(S(=O)(=O)Cc2ccccc2)c2nonc12 [Compound 228148],EC50,"[1]; Table 8, read-out: TAMH Bcl-xL",6 µM
same,Neo/Bcl-xL,[1]; Table 8,3.8
same,Fold Selectivity (Neo/Bcl-XL),[1]; Table 15,3.8
same,IC50,[1]; [5],6 µM
same,EC50,"[2]; Table 8, read-out: TANH Neo",22.5 µM
same,IC50,[2]; Table 15,22.5 µM
O=C(O)c1cc(Cl)cc(Cc2cc(Cl)cc(C(=O)O)c2O)c1O [Compound 48684],Fold Select. (Neo/Bcl-XL),[1]; Table 11,0
Cc1cc(O)c(Sc2c(O)cc(C)c(Cl)c2C)c(C)c1Cl [Compound 9875],Fold Select. (Neo/Bcl-XL),[1]; Table 10,6.3
same,IC50,[1]; [3],0.9 µM
same,IC50,[2]; Table 10,5.7 µM
Oc1ccc(Cl)cc1Sc1cc(Cl)ccc1O [Compound 4112],Fold Select. (Neo/Bcl-XL),[1]; Table 10,2.3
same,IC50,[1]; [3],2 µM
same,IC50,[2]; Table 10,4.7 µM
Cc1cc(O)c(O)c(Oc2cc(C)cc(O)c2O)c1 [Compound 330927],Fold Select. (Neo/Bcl-XL),[1]; Table 10,5
same,IC50,[1]; [3],19.8 µM
CC(C)(C)c1ccc(O)c(Sc2cc(C(C)(C)C)ccc2O)c1 [Compound 2855],Fold Select. (Neo/Bcl-XL),[1]; Table 11,0
CC(=O)Nc1ccc(Sc2ccc(NC(C)=O)cc2O)c(O)c1 [Compound 4581],Fold Select. (Neo/Bcl-XL),[1]; Table 11,0
Cc1cc(C)c(O)c(Cc2cccc(Cc3cc(C)cc(C)c3O)c2O)c1 [Compound 48168],Fold Select. (Neo/Bcl-xL),[1]; Table 13,0
